Laboratory results published in patent publication US20100086615A1, “AGENT FOR TREATMENT OF PULMONARY DISEASE” (KYUSHU UNIVERSITY, NATIONAL UNIVERSITY CORPORATION, priority 2007, published 2010).

Tested on: LPS-induced acute lung injury mice
Test: Intratracheal administration in LPS-induced acute lung injury model; cells counted in bronchoalveolar lavage fluid
Type: in vivo, mice (male BALB/c)
Conditions: non-polymer-incorporated solution in saline (50 μL), intratracheal, 0.2, 2 or 20 μg/body; n=8

## O=C([O-])C[C@H](O)C[C@H](O)/C=C/c1c(C2CC2)nc2ccccc2c1-c1ccc(F)cc1.O=C([O-])C[C@H](O)C[C@H](O)/C=C/c1c(C2CC2)nc2ccccc2c1-c1ccc(F)cc1.[Ca+2] [pitavastatin calcium]
  Effect of inhibiting migration of inflammatory cells (result in words): did not exhibit the effect of inhibiting migration of inflammatory cells
